{"source": "paper PMC7352759", "about": "“S(+)-(2E)-N-(2-Hydroxypropyl)-3-Phenylprop-2-Enamide (KM-568): A Novel Cinnamamide Derivative with Anticonvulsant Activity in Animal Models of Seizures and Epilepsy” (International Journal of Molecular Sciences, 2020)", "key": {"CF-1 mice": {"tested_on": "CF-1 mice", "assay": "Intravenous metrazol seizure threshold test (ivMET)", "assay_type": "in vivo", "conditions": "0.25 h, mean ± SEM; for Time to clonus / Time to twitch: ten animals", "experimental": "Then, 0.5% metrazol solution was then infused at a previously determined time-to-peak effect (0.25 h). The infusion was done at a constant rate of 0.34 mL/min through a tube cannulating a lateral tail vein of a test animal. The time from the start of the infusion to the appearance of the first twitch (time to twitch in sec) and the onset of sustained clonus (time to clonus in sec) were recorded. These times were also converted to the dose of metrazol (in mg/kg) causing first twitch and clonus."}, "rats": {"tested_on": "rats", "assay": "Maximal electroshock test (MES), rats", "assay_type": "in vivo", "conditions": "for ED50: Rattus norvegicus, 95% confidence interval in parentheses", "experimental": "In vivo activity testing was performed at the Epilepsy Branch, National Institute of Neurological Disorders and Stroke, National Institutes of Health (NIH, Bethesda, USA) within the Anticonvulsant Screening Program (ASP) (currently known as the Epilepsy Therapy Screening Program (ETSP)). Pharmacological evaluation was planned and performed in accordance with the Institute of Laboratory Resources polices on the humane care of laboratory animals and approved by the University of Utah’s Institutional Animal Care and Use Committee (IACUC). All testing protocols were previously published as well as they are available on the NIH website. In the tests, albino mice Carworth Farms No.1 (CF-1) (Charles River), C57/Bl6 mice (Charles River), Frings mice (University of Utah) or male rats Sprague–Dawley (Charles River) were used. All animals were housed, fed, and handled in a manner consistent with the recommendations in the National Council Publication, ‘Guide for the Care and Use of Laboratory animals’ [51]. The tested compound was suspended in 0.5% methylcellulose.\nAfter intraperitoneal or oral administration of compound KM-568 at certain dose, an alternating current at 60 Hz and 50 mA (mice) or 150 mA (rats) was delivered for 0.2 sec via corneal electrodes to induce seizures. Prior to each stimulation, a drop of 0.5% tetracaine hydrochloride in saline was applied to cornea. Protection was defined as the abolition of the hindlimb tonic extension of the seizures."}, "[1]": {"assay": "Neurotoxicity (TOX), rotarod test, mice", "assay_type": "in vivo", "conditions": "mouse, in vivo, rotarod, 0.25 h, 95% confidence interval in parentheses", "experimental": "(§1) In mice, the neurological deficit was measured by the rotarod test in which a 1 inch diameter knurled plastic rod rotating at 6 rpm was used. Tests were performed at 0.25 h or 0.5 h of intraperitoneal or oral administration of the certain dose of the compounds KM-568. Each mouse was placed on the rod. If the animal was not able to remain on the rod for at least 1 min in each of three trials, the neurotoxicity was scored. In rats, the neurological deficit was measured in behavioral tests and scored when ataxia and loss of placing response and muscle tone were observed. Tests in rats were performed after 0.5 h of intraperitoneal administration or 1.0 h of oral administration of the certain dose of compound KM-568. TD50s were calculated by probit analysis."}, "mice": {"tested_on": "mice", "assay": "Neurotoxicity (TOX), rotarod test, mice", "assay_type": "in vivo", "experimental": "as §1"}, "H9c2 cells": {"tested_on": "H9c2 cells", "assay": "MTT cytotoxicity assay, H9c2", "assay_type": "cell-based, rat", "experimental": "Human liver cancer HepG2 cell line (ATCC HB8065) and rat cardiomyoblast cell line H9c2 (ATCC-CRL1446) were purchased in ATCC (American Type Culture Collection, Manassas, VA, USA). The cells were cultured in standard conditions (37 °C, 5% CO2) in EMEM medium (ATCC, Manassas, VA, USA), supplemented with 10% FBS (Gibco, Waltham, MA, USA) and antibiotics (1% streptomycin/penicillin mixture, Sigma–Aldrich, Darmstadt, Germany) or DMEM high glucose (ATCC, Manassas, VA, USA) supplemented with 10% FBS (Gibco, Waltham, MA, USA) and antibiotics (1% streptomycin/penicillin mixture, Sigma–Aldrich, Darmstadt, Germany), respectively.\nThe MTT colorimetric assay was used to determine the cytotoxic effects of the KM-568 and DOX (Sigma–Aldrich, Darmstadt, Germany). Cells were seeded at a density of 1 × 10^4 in 96-well plates. Following overnight culture, the cells were then treated with KM-568 and DOX in concentration range 0.1–200 µM (hepatocytotoxicity) or 0.1–100 µM (cardiocytotoxicity). Following cell exposure to each drug for 24 h in 96 well plates, 10 µL MTT reagent (Sigma–Aldrich, Darmstadt, Germany) was added to each well; after 4 h of incubation (37 °C, 5% CO2), the medium was aspirated and formazan produced in cells appeared as dark crystals in the bottom of the wells. […] Then, absorbance was measured at 570 nm on a multi-well plate reader (Spectra Max iD3, Molecular Devices, San Jose, CA, USA). […]"}}}
{"smiles": "C[C@H](O)CNC(=O)/C=C/c1ccccc1", "note": "[KM-568, S(+)-(2E)-N-(2-hydroxypropyl)-3-phenylprop-2-enamide]", "values": [{"measurement": "Clonus (calculated metrazol dose causing clonus)", "setting": "CF-1 mice; 44 mg/kg i.p.", "result": "50.8 ± 3.5", "unit": "mg/kg"}, {"measurement": "Twitch (calculated metrazol dose causing first twitch)", "setting": "CF-1 mice; 44 mg/kg i.p.", "result": "37.8 ± 1.4", "unit": "mg/kg"}, {"measurement": "Time to clonus", "setting": "CF-1 mice; 44 mg/kg i.p.", "result": "48.2 ± 3.5", "unit": "s"}, {"measurement": "Time to twitch", "setting": "CF-1 mice; 44 mg/kg i.p.", "result": "35.8 ± 1.5", "unit": "s"}, {"measurement": "Clonus (calculated metrazol dose causing clonus)", "setting": "CF-1 mice; 148 mg/kg i.p.", "result": "80.2 ± 3.2", "unit": "mg/kg"}, {"measurement": "Twitch (calculated metrazol dose causing first twitch)", "setting": "CF-1 mice; 148 mg/kg i.p.", "result": "61.3 ± 2.2", "unit": "mg/kg"}, {"measurement": "Time to clonus", "setting": "CF-1 mice; 148 mg/kg i.p.", "result": "75.9 ± 2.9", "unit": "s"}, {"measurement": "Time to twitch", "setting": "CF-1 mice; 148 mg/kg i.p.", "result": "57.9 ± 1.6", "unit": "s"}, {"measurement": "ED50", "setting": "rats; ip, 0.25 h", "result": 27.6, "unit": "mg/kg"}, {"measurement": "ED50", "setting": "rats; po, 1.0 h", "result": 30.8, "unit": "mg/kg"}, {"measurement": "MES Results (protected/tested animals)", "setting": "rats; i.p., 15 mg/kg, 0.25 h", "result": "1/8"}, {"measurement": "MES Results (protected/tested animals)", "setting": "rats; i.p., 22 mg/kg, 0.25 h", "result": "3/8"}, {"measurement": "MES Results (protected/tested animals)", "setting": "rats; i.p., 30 mg/kg, 0.25 h", "result": "5/8"}, {"measurement": "MES Results (protected/tested animals)", "setting": "rats; i.p., 60 mg/kg, 0.25 h", "result": "7/8"}, {"measurement": "MES Results (protected/tested animals)", "setting": "rats; p.o., 20.0 mg/kg, 1.0 h", "result": "1/8"}, {"measurement": "MES Results (protected/tested animals)", "setting": "rats; p.o., 30.0 mg/kg, 1.0 h", "result": "3/8"}, {"measurement": "MES Results (protected/tested animals)", "setting": "rats; p.o., 35.0 mg/kg, 1.0 h", "result": "5/8"}, {"measurement": "MES Results (protected/tested animals)", "setting": "rats; p.o., 40.0 mg/kg, 1.0 h", "result": "7/8"}, {"measurement": "TD50 at 0.25 h", "setting": "[1]; ip", "result": 148, "unit": "mg/kg"}, {"measurement": "TD50 at 0.25 h", "setting": "[1]; po", "result": 344, "unit": "mg/kg"}, {"measurement": "TOX Results (animals displaying neurotoxicity/animals used)", "setting": "mice; i.p., 100 mg/kg, 0.25 h", "result": "0/8"}, {"measurement": "TOX Results (animals displaying neurotoxicity/animals used)", "setting": "mice; i.p., 125 mg/kg, 0.25 h", "result": "0/8"}, {"measurement": "TOX Results (animals displaying neurotoxicity/animals used)", "setting": "mice; i.p., 138 mg/kg, 0.25 h", "result": "2/8"}, {"measurement": "TOX Results (animals displaying neurotoxicity/animals used)", "setting": "mice; i.p., 150 mg/kg, 0.25 h", "result": "5/8"}, {"measurement": "TOX Results (animals displaying neurotoxicity/animals used)", "setting": "mice; i.p., 170 mg/kg, 0.25 h", "result": "7/8"}, {"measurement": "TOX Results (animals displaying neurotoxicity/animals used)", "setting": "mice; i.p., 200 mg/kg, 0.25 h", "result": "8/8"}, {"measurement": "TOX Results (animals displaying neurotoxicity/animals used)", "setting": "mice; p.o., 200 mg/kg", "result": "0/8"}, {"measurement": "TOX Results (animals displaying neurotoxicity/animals used)", "setting": "mice; p.o., 300 mg/kg", "result": "3/8"}, {"measurement": "TOX Results (animals displaying neurotoxicity/animals used)", "setting": "mice; p.o., 350 mg/kg", "result": "5/8"}, {"measurement": "TOX Results (animals displaying neurotoxicity/animals used)", "setting": "mice; p.o., 400 mg/kg", "result": "5/8"}, {"measurement": "TOX Results (animals displaying neurotoxicity/animals used)", "setting": "mice; p.o., 500 mg/kg", "result": "7/8"}, {"measurement": "percent of living cells", "setting": "H9c2 cells; H9c2, 24 h incubation with 100 µM", "result": "~100", "unit": "%"}, {"measurement": "cytotoxic effect, MTT assay", "setting": "H9c2 cells; H9c2, up to 100 µM, 24 h", "result": "no cytotoxic effect"}]}
